Experimental data from ChEMBL document CHEMBL3593218, “4,6-Substituted-1,3,5-triazin-2(1H)-ones as monocyclic catalytic inhibitors of human DNA topoisomerase IIα targeting the ATP binding site” (Bioorg Med Chem, 2015).
Where “and” joins values, the source holds several entries; their conditions need not be identical. Equal values may be shown once. Blank lines part the entries; values can stand above or below the compound they belong to.

Legend:
[1] = target: T1, DNA topoisomerase 2-alpha (Homo sapiens, UniProt P11388); test: Inhibition of human DNA topoisomerase IIalpha using plasmid pNO1 as a substrate after 30 mins
T1 sequence (P11388 whole entry): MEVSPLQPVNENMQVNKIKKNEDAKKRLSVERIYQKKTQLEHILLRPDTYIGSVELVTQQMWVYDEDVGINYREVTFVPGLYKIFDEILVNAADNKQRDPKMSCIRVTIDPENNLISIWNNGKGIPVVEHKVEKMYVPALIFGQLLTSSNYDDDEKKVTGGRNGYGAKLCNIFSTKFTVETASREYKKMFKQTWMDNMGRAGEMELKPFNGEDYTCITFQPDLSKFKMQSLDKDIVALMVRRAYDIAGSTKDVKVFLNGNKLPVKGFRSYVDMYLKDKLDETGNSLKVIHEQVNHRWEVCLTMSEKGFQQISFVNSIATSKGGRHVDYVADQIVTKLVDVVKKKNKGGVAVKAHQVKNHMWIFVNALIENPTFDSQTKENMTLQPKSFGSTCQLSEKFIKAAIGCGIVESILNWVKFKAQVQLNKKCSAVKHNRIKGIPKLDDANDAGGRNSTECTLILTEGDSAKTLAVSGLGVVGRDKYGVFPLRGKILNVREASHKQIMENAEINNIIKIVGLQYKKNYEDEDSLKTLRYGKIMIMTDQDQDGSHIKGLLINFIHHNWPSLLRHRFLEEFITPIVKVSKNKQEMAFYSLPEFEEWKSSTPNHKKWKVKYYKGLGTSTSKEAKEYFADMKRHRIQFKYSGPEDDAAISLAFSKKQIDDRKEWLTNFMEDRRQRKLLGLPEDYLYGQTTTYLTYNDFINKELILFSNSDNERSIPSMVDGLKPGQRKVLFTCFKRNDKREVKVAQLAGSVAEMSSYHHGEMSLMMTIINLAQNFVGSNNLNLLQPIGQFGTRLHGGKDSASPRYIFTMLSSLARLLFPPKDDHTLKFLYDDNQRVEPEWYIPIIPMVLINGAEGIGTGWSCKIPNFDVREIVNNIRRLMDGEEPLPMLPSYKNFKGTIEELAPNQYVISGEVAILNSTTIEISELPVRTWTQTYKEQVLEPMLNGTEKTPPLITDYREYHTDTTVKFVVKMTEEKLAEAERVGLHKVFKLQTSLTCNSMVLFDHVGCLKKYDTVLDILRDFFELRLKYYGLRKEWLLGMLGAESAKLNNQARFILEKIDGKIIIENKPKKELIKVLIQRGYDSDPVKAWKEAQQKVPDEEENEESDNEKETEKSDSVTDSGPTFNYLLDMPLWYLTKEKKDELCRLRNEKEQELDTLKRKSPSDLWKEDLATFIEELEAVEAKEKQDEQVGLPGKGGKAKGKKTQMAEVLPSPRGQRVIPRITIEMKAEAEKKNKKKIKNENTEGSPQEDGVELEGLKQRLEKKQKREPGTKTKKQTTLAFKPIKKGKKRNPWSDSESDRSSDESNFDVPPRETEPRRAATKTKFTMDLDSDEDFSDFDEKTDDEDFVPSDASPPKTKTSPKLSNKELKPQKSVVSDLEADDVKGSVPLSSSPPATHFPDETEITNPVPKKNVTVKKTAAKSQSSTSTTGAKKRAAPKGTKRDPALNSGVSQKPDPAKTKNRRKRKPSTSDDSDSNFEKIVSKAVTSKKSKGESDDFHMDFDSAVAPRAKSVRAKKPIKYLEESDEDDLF

[2] = Lipophilicity, log P of the compound; assay type: physicochemical; conditions: octanol/water
[3] = target: T1, DNA topoisomerase 2-alpha; test: Inhibition of human DNA topoisomerase IIalpha ATPase activity assessed as residual ATP hydrolysis at 125 uM measured up to 60 mins
[4] = target: T1, DNA topoisomerase 2-alpha; test: Inhibition of human DNA topoisomerase IIalpha assessed as decatenation of kDNA at 125 uM after 90 mins by ethidium bromide staining; set-up: scale not given: the % may be the effect or the level left
[5] = target: T1, DNA topoisomerase 2-alpha; test: Inhibition of human DNA topoisomerase IIalpha ATPase activity assessed as residual ATP hydrolysis at 31.5 uM measured up to 60 mins
[6] = target: T1, DNA topoisomerase 2-alpha; test: Inhibition of human DNA topoisomerase IIalpha assessed as reduction in enzyme-catalyzed supercoiling of relaxed circular pBR322 DNA by measuring linear DNA level at 500 uM after 60 mins by agarose gel electrophoresis; set-up: scale not given: the % may be the effect or the level left
[7] = target: T1, DNA topoisomerase 2-alpha; test: Inhibition of human DNA topoisomerase IIalpha assessed as reduction in enzyme-catalyzed supercoiling of relaxed circular pBR322 DNA by measuring linear DNA level at 3.9 uM after 60 mins by agarose gel electrophoresis; set-up: scale not given: the % may be the effect or the level left
[8] = target: T1, DNA topoisomerase 2-alpha; test: Inhibition of human DNA topoisomerase IIalpha assessed as decatenation of kDNA at 3.9 uM after 90 mins by ethidium bromide staining; set-up: scale not given: the % may be the effect or the level left
[9] = target: T1, DNA topoisomerase 2-alpha; test: Inhibition of human DNA topoisomerase IIalpha assessed as reduction in enzyme-catalyzed supercoiling of relaxed circular pBR322 DNA by measuring linear DNA level at 31.5 uM after 60 mins by agarose gel electrophoresis; set-up: scale not given: the % may be the effect or the level left
[10] = target: T1, DNA topoisomerase 2-alpha; test: Inhibition of human DNA topoisomerase IIalpha ATPase activity assessed as residual ATP hydrolysis at 500 uM measured up to 60 mins
[11] = target: T1, DNA topoisomerase 2-alpha; test: Inhibition of human DNA topoisomerase IIalpha ATPase activity assessed as residual ATP hydrolysis at 3.9 uM measured up to 60 mins
[12] = target: T1, DNA topoisomerase 2-alpha; test: Inhibition of human DNA topoisomerase IIalpha assessed as decatenation of kDNA at 500 uM after 90 mins by ethidium bromide staining; set-up: scale not given: the % may be the effect or the level left
[13] = target: T1, DNA topoisomerase 2-alpha; test: Inhibition of human DNA topoisomerase IIalpha assessed as decatenation of kDNA at 31.5 uM after 90 mins by ethidium bromide staining; set-up: scale not given: the % may be the effect or the level left
[14] = target: T1, DNA topoisomerase 2-alpha; test: Inhibition of human DNA topoisomerase IIalpha assessed as reduction in enzyme-catalyzed supercoiling of relaxed circular pBR322 DNA by measuring linear DNA level at 50 uM after 60 mins by agarose gel electrophoresis; set-up: scale not given: the % may be the effect or the level left
[15] = target: T1, DNA topoisomerase 2-alpha; test: Inhibition of human DNA topoisomerase IIalpha assessed as reduction in enzyme-catalyzed supercoiling of relaxed circular pBR322 DNA by measuring linear DNA level at 62.5 uM after 60 mins by agarose gel electrophoresis; set-up: scale not given: the % may be the effect or the level left
[16] = target: T1, DNA topoisomerase 2-alpha; test: Inhibition of human DNA topoisomerase IIalpha assessed as reduction in enzyme-catalyzed supercoiling of relaxed circular pBR322 DNA by measuring linear DNA level at 125 uM after 60 mins by agarose gel electrophoresis; set-up: scale not given: the % may be the effect or the level left
[17] = target: T1, DNA topoisomerase 2-alpha; test: Inhibition of human DNA topoisomerase IIalpha ATPase activity assessed as residual ATP hydrolysis at 62.5 uM measured up to 60 mins
[18] = target: T1, DNA topoisomerase 2-alpha; test: Inhibition of human DNA topoisomerase IIalpha assessed as decatenation of kDNA at 62.5 uM after 90 mins by ethidium bromide staining; set-up: scale not given: the % may be the effect or the level left
[19] = target: T1, DNA topoisomerase 2-alpha; test: Inhibition of human DNA topoisomerase IIalpha assessed as decatenation of kDNA at 15.625 uM after 90 mins by ethidium bromide staining; set-up: scale not given: the % may be the effect or the level left
[20] = target: T1, DNA topoisomerase 2-alpha; test: Inhibition of human DNA topoisomerase IIalpha assessed as reduction in enzyme-catalyzed supercoiling of relaxed circular pBR322 DNA by measuring linear DNA level at 15.625 uM after 60 mins by agarose gel electrophoresis; set-up: scale not given: the % may be the effect or the level left
[21] = target: T1, DNA topoisomerase 2-alpha; test: Inhibition of human DNA topoisomerase IIalpha ATPase activity assessed as residual ATP hydrolysis at 15.625 uM measured up to 60 mins
[22] = target: T1, DNA topoisomerase 2-alpha; test: Inhibition of human DNA topoisomerase IIalpha assessed as reduction in enzyme-catalyzed supercoiling of relaxed circular pBR322 DNA by measuring linear DNA level at 500 uM after 60 mins by agarose gel electrophoresis in presence of 50 uM of etoposide; set-up: scale not given: the % may be the effect or the level left
[23] = target: T1, DNA topoisomerase 2-alpha; test: Inhibition of human DNA topoisomerase IIalpha assessed as reduction in enzyme-catalyzed supercoiling of relaxed circular pBR322 DNA by measuring linear DNA level at 31.5 uM after 60 mins by agarose gel electrophoresis in presence of 50 uM of etoposide; set-up: scale not given: the % may be the effect or the level left
[24] = target: T1, DNA topoisomerase 2-alpha; test: Inhibition of human DNA topoisomerase IIalpha assessed as reduction in enzyme-catalyzed supercoiling of relaxed circular pBR322 DNA by measuring linear DNA level after 60 mins by agarose gel electrophoresis
[25] = target: T1, DNA topoisomerase 2-alpha; test: Inhibition of human DNA topoisomerase IIalpha assessed as decatenation of kDNA after 90 mins by ethidium bromide staining
[26] = target: T1, DNA topoisomerase 2-alpha; test: Inhibition of human DNA topoisomerase IIalpha assessed as reduction in enzyme-catalyzed supercoiling of relaxed circular pBR322 DNA by measuring linear DNA level at 125 uM after 60 mins by agarose gel electrophoresis in presence of 50 uM of etoposide; set-up: scale not given: the % may be the effect or the level left
[27] = target: T1, DNA topoisomerase 2-alpha; test: Inhibition of human DNA topoisomerase IIalpha assessed as reduction in enzyme-catalyzed supercoiling of relaxed circular pBR322 DNA by measuring linear DNA level at 3.9 uM after 60 mins by agarose gel electrophoresis in presence of 50 uM of etoposide; set-up: scale not given: the % may be the effect or the level left

SMILES: CCCSc1nc(SCc2ccccc2)[nH]c(=O)n1
IC50 [1]: > 1000 µM

SMILES: COc1nc(OC)nc(Sc2ccccc2C(=O)N[C@H](CCC(=O)OCc2ccccc2)C(=O)OCc2ccccc2)n1
IC50 [1]: > 1000 µM

SMILES: COC(=O)c1ccccc1Oc1nc(OC)nc(OC)n1
IC50 [1]: > 1000 µM

SMILES: O=c1nc(SCc2ccccc2)nc(SCc2ccccc2Cl)[nH]1
IC50 [1]: 94.1 µM | logP [2]: 3.3

SMILES: O=C1NC(SCc2ccccc2)=NC(Sc2ccccc2)N1 (configuration not stated)
IC50 [1]: > 1000 µM

SMILES: COc1cccc(CSc2nc(SCc3ccccc3)nc(=O)[nH]2)c1
IC50 [1]: 485 µM

SMILES: COc1ccc(CNc2nc(Cl)nc(Nc3ccccc3CCO)n2)cc1
IC50 [1]: > 1000 µM

SMILES: O=C(O)CSC1N=C(SCc2ccccc2)NC(=O)N1 (configuration not stated)
IC50 [1]: > 1000 µM

SMILES: COC(=O)c1ccccc1Nc1nc(Cl)nc(Cl)n1
IC50 [1]: > 1000 µM

SMILES: COc1ccc(CCNc2nc(Cl)nc(Cl)n2)cc1OC
IC50 [1]: > 1000 µM

SMILES: COc1nc(OC)nc(Sc2ccccc2C(=O)O)n1
IC50 [1]: > 1000 µM

SMILES: Clc1nc(Cl)nc(Nc2ccccc2Br)n1
IC50 [1]: > 1000 µM

SMILES: COc1nc(N[C@H](CCC(=O)O)C(=O)O)nc(OC)n1
IC50 [1]: > 1000 µM

SMILES: Cc1ccc(-c2nc(S)[nH]c(=O)n2)cc1
IC50 [1]: > 1000 µM

More lines, now with the values ahead:

IC50 [1]: 359 µM
SMILES: O=c1nc(SCc2ccccc2)nc(SCc2ccc([N+](=O)[O-])cc2)[nH]1

IC50 [1]: > 1000 µM
SMILES: O=c1nc(-c2cccc([N+](=O)[O-])c2)nc(S)[nH]1

IC50 [1]: > 1000 µM
SMILES: O=C(O)c1ccccc1Sc1nc(Cl)nc(Cl)n1

Activity [3]: 31.8% | Activity [4]: 14.2% | Activity [5]: 45.8% | Activity [6]: 32.5% | Activity [7]: 12.4% | Activity [8]: 88.3% | Activity [9]: 34.3% | Activity [10]: 18.7% | Activity [11]: 65.4% | Activity [12]: 3.25% | Activity [13]: 68.8% | Activity [14]: 34.6% | Activity [15]: 18.1% | Activity [16]: 36.1%
SMILES: COc1cc([C@@H]2c3cc4c(cc3[C@@H](O[C@@H]3O[C@@H]5CO[C@@H](C)O[C@H]5[C@H](O)[C@H]3O)[C@H]3COC(=O)[C@H]23)OCO4)cc(OC)c1O

Activity [5]: 0% | Activity [7]: 1.7% | Activity [17]: 0% | Activity [8]: 77.4% | Activity [9]: 2.51% | Activity [10]: 0% and 18.7% | Activity [11]: 0% | Activity [13]: 10.8% | Activity [18]: 6.05% | Activity [19]: 18.2% | Activity [20]: 3.1% | Activity [15]: 2.1% | Activity [21]: 0%
SMILES: CC(C(C)N1CC(=O)NC(=O)C1)N1CC(=O)NC(=O)C1 (configuration not stated)

Activity [22]: 5.3% | Activity [23]: 33.5% | Activity [4]: 0% | Activity [6]: 2.5% | Activity [7]: 4.4% | Activity [8]: 87.3% | Activity [9]: 1.2% | inhibition [24]: Dose-dependent effect | Activity [12]: 0% | Activity [13]: 33.9% | Activity [18]: 6.05% | inhibition [25]: Dose-dependent effect | Activity [19]: 18.2% | IC50 [1]: 54.6 µM | Activity [26]: 9.2% | Activity [16]: 3.5% | logP [2]: 3.3 | Activity [27]: 34.3%
SMILES: O=c1nc(SCc2ccccc2)nc(SCc2cccc(Cl)c2)[nH]1

IC50 [1]: 153 µM
SMILES: N#Cc1ccc(CSc2nc(SCc3ccccc3)nc(=O)[nH]2)cc1

IC50 [1]: > 1000 µM
SMILES: CN(CCO)c1nc(Cl)nc(Nc2ccccc2CCO)n1

IC50 [1]: > 1000 µM
SMILES: O=c1nc(-c2ccccc2)nc(S)[nH]1

IC50 [1]: 522 µM
SMILES: N#Cc1ccccc1CSc1nc(SCc2ccccc2)nc(=O)[nH]1
